Residue numbers refer to the chain shown, from its start. pIC50, pKi: −log10 of the molar value. Blank lines part the entries; values can stand above or below the compound they belong to.
Key:
Format in all cases: biochemical
pig kidney FBPase M248D = molecular target: T1, pig kidney FBPase M248D (Sus scrofa, UniProt P00636, M249D); assay: Malachite Green kinetic assay, M248D mutant; conditions: for pIC50: FBP substrate 10 to 50 µM
T1 construct: His6 (C); made in house; host or cells: Escherichia coli BL21 (DE3)
T1 sequence (P00636 1-338 M249D): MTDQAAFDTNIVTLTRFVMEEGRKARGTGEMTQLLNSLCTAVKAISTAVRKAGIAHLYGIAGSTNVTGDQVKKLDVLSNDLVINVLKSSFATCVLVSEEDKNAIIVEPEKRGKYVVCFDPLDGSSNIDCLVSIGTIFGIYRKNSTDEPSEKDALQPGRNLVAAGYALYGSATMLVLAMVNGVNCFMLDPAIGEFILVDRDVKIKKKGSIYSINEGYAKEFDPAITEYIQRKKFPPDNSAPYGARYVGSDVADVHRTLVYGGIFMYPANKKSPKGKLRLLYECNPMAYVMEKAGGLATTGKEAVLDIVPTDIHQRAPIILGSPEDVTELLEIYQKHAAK
Experimental: (§1) For the kinetic assay, a standard curve was obtained from an ammonium molybdate Malachite Green inorganic phosphate assay (OD660 nm). The purified FBPase protein was dialyzed ×3 in 50 mM Tris buffer at pH 7.5 at 4°C. For enzyme concentration, absorbency values were recorded for all five mutant proteins using spectrophotometer readings at OD280 nm. To quantitate enzyme concentration, the enzymes were calculated based on the quantity of micrograms per microliter (µg/µl) present. Final concentration of WT and mutant enzymes was between 2.5 and 5.0 µg/µl. Using a colorimetric assay as described below, specific activity (SA) was determined. At last, all kinetic and binding assays described below were performed in 50 mM Tris pH 7.5.
(§2) Kinetic assays were performed for WT and mutant enzymes to identify functional differences between the WT enzyme and the mutants. […] Readings recorded at OD660 nm for each enzyme were applied to the standard curve equation. Micromoles of inorganic phosphate were calculated to determine the SA of mutant enzymes.
(§3) For each clone, the kinetic assay was performed in duplicates of triplicates. Malachite Geen was used to detect inorganic phosphate. Two separate clones were processed independently of the same mutant. All kinetic data were fit to symmetric sigmoidal curve using Origin software based on methods previously described [[27–29]]. More specifically, for kinetic parameters established via curve fitting (shown in Tables 1–3; and in Figure 5A,B), the equation y = d + (a − d)/1 + (x/c)^b was used where ‘x’ is represented by apparent Michelis constant (Km) when y = Vmax. […] P-values were significant at <0.001 and represent a comparison with the WT enzyme.

pig kidney FBPase Y113A = molecular target: T2, pig kidney FBPase Y113A (Sus scrofa, UniProt P00636, Y114A); assay: Malachite Green kinetic assay, Y113A mutant; conditions: for pIC50: FBP substrate 10 to 50 µM
T2 construct: His6 (C); made in house; host or cells: Escherichia coli BL21 (DE3)
T2 sequence (P00636 1-338 Y114A): T1 sequence (P00636 1-338 M249D) with Y114A, D249M
Experimental: as §1, §2, §3

pig kidney FBPase L56A = molecular target: T3, pig kidney FBPase L56A (Sus scrofa, UniProt P00636, L57A); assay: Malachite Green kinetic assay, L56A mutant; conditions: enzyme L56A; for pIC50: FBP substrate 10 to 50 µM
T3 construct: His6 (C); made in house; host or cells: Escherichia coli BL21 (DE3)
T3 sequence (P00636 1-338 L57A): T1 sequence (P00636 1-338 M249D) with L57A, D249M
Experimental: as §1, §2, §3

pig kidney FBPase Y164A = molecular target: T4, pig kidney FBPase Y164A (Sus scrofa, UniProt P00636, Y165A); assay: Malachite Green kinetic assay, Y164A mutant; conditions: enzyme Y164A; for pIC50: FBP substrate 10 to 50 µM
T4 construct: His6 (C); made in house; host or cells: Escherichia coli BL21 (DE3)
T4 sequence (P00636 1-338 Y165A): T1 sequence (P00636 1-338 M249D) with Y165A, D249M
Experimental: as §1, §2, §3

pig kidney FBPase K112A = molecular target: T5, pig kidney FBPase K112A (Sus scrofa, UniProt P00636, K113A); assay: Malachite Green kinetic assay, K112A mutant; conditions: for pIC50: FBP substrate 10 to 50 µM
T5 construct: His6 (C); made in house; host or cells: Escherichia coli BL21 (DE3)
T5 sequence (P00636 1-338 K113A): T1 sequence (P00636 1-338 M249D) with K113A, D249M
Experimental: as §1, §2, §3

[1] = association (binding) constant from saturation curve

AMP Hill coefficient (pig kidney FBPase M248D; enzyme M248D): 2.5 (± 0.2)
pIC50 (pig kidney FBPase M248D; enzyme M248D): 5.14
pIC50 (pig kidney FBPase Y113A; enzyme Y113A_1): 4.31
pIC50 (pig kidney FBPase Y113A; enzyme Y113A_2): 4.26
AMP Hill coefficient (pig kidney FBPase L56A): 2.3 (± 0.2)
pIC50 (pig kidney FBPase L56A): 5.13
AMP Hill coefficient (pig kidney FBPase Y164A): 2.8 (± 0.2)
pIC50 (pig kidney FBPase Y164A): 5.60
pIC50 (pig kidney FBPase K112A; enzyme K112A_1): 4.16
pIC50 (pig kidney FBPase K112A; enzyme K112A_2): 4.28
Structure (SMILES): Nc1ncnc2c1ncn2[C@@H]1O[C@H](COP(=O)(O)O)[C@@H](O)[C@H]1O [AMP]

pKi (pig kidney FBPase M248D; enzyme M248D): 5.82
pIC50 (pig kidney FBPase M248D; enzyme M248D): 4.98
pKi (pig kidney FBPase Y113A; enzyme Y113A): 6.60
pIC50 (pig kidney FBPase Y113A; enzyme Y113A_1): 5.74
pIC50 (pig kidney FBPase Y113A; enzyme Y113A_2): 5.77
pKi (pig kidney FBPase L56A): 5.90
pIC50 (pig kidney FBPase L56A): 5.12
pKi (pig kidney FBPase Y164A): 6.82
pIC50 (pig kidney FBPase Y164A): 6.02
pKi (pig kidney FBPase K112A; enzyme K112A): 6.62
pIC50 (pig kidney FBPase K112A; enzyme K112A_1): 5.82
pIC50 (pig kidney FBPase K112A; enzyme K112A_2): 5.82
Structure (SMILES): O=P(O)(O)OC[C@H]1O[C@@](CO)(OP(=O)(O)O)[C@@H](O)[C@@H]1O [F2,6-BP, fructose-2,6-bisphosphate]

decrease in Ka for magnesium binding (pig kidney FBPase M248D; enzyme M248D vs WT): 6.25
Ka (pig kidney FBPase M248D; enzyme M248D, association (binding) constant from saturation curve): 0.08 (± 0.02) mM
Hill coefficient (pig kidney FBPase M248D; enzyme M248D, for magnesium): 2.20 (± 0.17)
Ka (pig kidney FBPase Y113A; enzyme Y113A, association (binding) constant from saturation curve): 0.48 (± 0.16) mM
Hill coefficient (pig kidney FBPase Y113A; enzyme Y113A, for magnesium): 2.00 (± 0.19)
Ka (pig kidney FBPase L56A; [1]): 0.52(± 0.13) mM
Hill coefficient (pig kidney FBPase L56A; for magnesium): 2.75 (± 0.16)
Ka (pig kidney FBPase Y164A; [1]): 0.50 (± 0.15) mM
Hill coefficient (pig kidney FBPase Y164A; for magnesium): 2.15 (± 0.12)
Ka (pig kidney FBPase K112A; enzyme K112A, association (binding) constant from saturation curve): 0.51 (± 0.15) mM
Hill coefficient (pig kidney FBPase K112A; enzyme K112A, for magnesium): 1.98 (± 0.15)
Structure (SMILES): [Mg+2] [Mg^2+, magnesium]
